These results are taken from US4746648A, “Peptide derivatives which inhibit renin and acid proteases” (Sanofi; Institut National de la Recherche Medicale, priority 1985, dated 1988).

As a reminder, the IC50 is the concentration at which inhibition is half-maximal.

Starred links: 1 amine or outer side, 2 acyl side, 3 side chain; linkers in the order of their positions; H or OH if unused. Non-standard residues stand in square brackets, D forms with d. Residues, ends and D or L forms follow the SMILES beside them. ξ: configuration not given here. *: point of attachment. X9 = CCn1cnc(C[C@H](N[*:1])C(=O)[*:2])c1; His(τ-Me) = Cn1cnc(C[C@H](N)C(=O)O)c1; Sta = CC(C)C[C@H](N)[C@@H](O)CC(=O)O; X10 = Cc1nc(C(N[*:1])C(=O)[*:2])cs1; Gly(cPent) = N[C@H](C(=O)O)C1CCCC1; Phg = N[C@H](C(=O)O)c1ccccc1; ξ3Pal = NC(Cc1cccnc1)C(=O)O; ξ4Pal = NC(Cc1ccncc1)C(=O)O; Isovaleryl = CC(C)CC(=O)*; Boc = CC(C)(C)OC(=O)*; OBn = c1ccc(CO*)cc1; X4 = c1ccc(C*)nc1; tBu = CC(C)(C)*

For one assay, the target named is T1, human plasma renin activity (PRA) (Homo sapiens, UniProt P00797).
T1 construct: from tissue; host or cells: human plasma pool
T1 sequence (P00797 67-406): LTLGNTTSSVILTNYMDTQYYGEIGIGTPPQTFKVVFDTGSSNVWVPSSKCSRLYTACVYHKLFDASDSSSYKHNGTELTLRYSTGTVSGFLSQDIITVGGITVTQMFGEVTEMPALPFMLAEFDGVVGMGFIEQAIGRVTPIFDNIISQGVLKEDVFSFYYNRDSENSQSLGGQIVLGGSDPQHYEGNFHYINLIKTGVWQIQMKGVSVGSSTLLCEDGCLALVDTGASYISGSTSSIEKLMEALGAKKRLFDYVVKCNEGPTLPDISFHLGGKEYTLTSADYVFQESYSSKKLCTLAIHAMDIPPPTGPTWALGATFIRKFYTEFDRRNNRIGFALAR
Briefly: Inhibition of human plasma renin activity (PRA) in vitro, angiotensin I released measured by radioimmunoassay. Format: biochemical. The conditions noted are these: human plasma pool rich in renin, 60 min at 37° C., phosphate buffer pH 7.4; -log IC50. The protocol:
Human plasma contains the substrate angiotensinogen and the enzyme renin. […] An inhibitor of the conversion enzyme, phenylmethylsulfonyl fluoride (PMSF), is added to the incubation medium.
420 microliters of human plasma
11 to 50 microliters of the product to be studied, at variable concentrations
A solution of acetic acid in methanol (19/1 by volume) and a solution of sodium hydroxide in methanol (2/1 by volume) are prepared. In a mixture of equal volumes of these 2 solutions, a 0.001M stock solution of the peptide is prepared. The subsequent dilutions of the peptide are then made up in the phosphate buffer.
The results are expressed by their logarithmic value (-log IC50).
For the molecule “Boc--Phe--(1-methylimidazol-2-yl)Ala--AHPPA--Ala--Sta--OCH3 [SR 43428]”, the “Inhibition of human PRA -log IC50 M pH 7.4” value is reported as 6.16 -log M.
As to “Boc-Phe-(Pyr-2)Ala-Sta-Leu-Phe-OMe [SR 43150]”, the “Inhibition of human PRA -log IC50 M pH 7.4” value is 5.21 -log M.

The assay is the same for the next values; noted with them: human plasma pool rich in renin, 60 min at 37° C., phosphate buffer pH 7.4; -log IC50; listed as 41 151.
In the case of “Boc-Phe-(Pyr-2)Ala-Sta-Leu-Phe-OMe [SR 43151]”, the “Inhibition of human PRA -log IC50 M pH 7.4” value is listed as 6.66 -log M.

Still in this assay, the particulars now being: read-out: Inhibition of human PRA -log IC50 M pH 7.4 (converted).
As for `CC(C)CC(=O)N[C@@H](Cc1ccccc1)C(=O)N[C@@H](Cc1cn(C)cn1)C(=O)N[C@@H](CC(C)C)[C@@H](O)CC(=O)N[C@@H](C)C(=O)N[C@@H](CC(C)C)[C@@H](O)CC(=O)O` [SR 43761, iVa--Phe--(tauMe)His--Sta--Ala--Sta--OH] (Isovaleryl-F[His(τ-Me)][Sta]A[Sta]-OH), the IC50 was 151 nM.
The same measure, in the same setting: to `COC(=O)[C@H](CC(C)C)NC(=O)[C@H](C)NC(=O)C[C@H](O)[C@H](CC(C)C)NC(=O)[C@H](CC(=O)OCc1ccccc1)NC(=O)[C@H](Cc1ccccc1)NC(=O)OC(C)(C)C` [SR 42926, Boc-Phe-(PhCH2)Asp-Sta-Ala-Leu-OMe] (Boc-FD(OBn)[Sta]AL-OMe) belongs 398 nM; to `COC(=O)[C@H](Cc1ccccc1)NC(=O)[C@H](CC(C)C)NC(=O)C[C@H](O)[C@H](CC(C)C)NC(=O)C(Cc1cccnc1)NC(=O)[C@H](Cc1ccccc1)NC(=O)OC(C)(C)C` (stereo partly drawn) [SR 43064, Boc-Phe-(Pyr-3)Ala-Sta-Leu-Phe-OMe] (Boc-F[ξ3Pal][Sta]LF-OMe), 316 nM; to `COC(=O)C[C@H](O)[C@H](CC(C)C)NC(=O)[C@H](C)NC(=O)C[C@H](O)[C@H](CC(C)C)NC(=O)[C@H](COC(C)(C)C)NC(=O)[C@H](Cc1ccccc1)NC(=O)OC(C)(C)C` [SR 43297, Boc--Phe--((CH3)3 CO)Ser--Sta--Ala--Sta--OMe] (Boc-FS(tBu)[Sta]A[Sta]-OMe), 2140 nM.
On to `COC(=O)C[C@H](O)[C@H](CC(C)C)NC(=O)[C@H](C)NC(=O)C[C@H](O)[C@H](CC(C)C)NC(=O)[C@@H](NC(=O)[C@H](Cc1ccccc1)NC(=O)OC(C)(C)C)c1ccccc1` [SR 42823, Boc--Phe--Phg--Sta--Ala--Sta--OMe] (Boc-F[Phg][Sta]A[Sta]-OMe), for which the IC50 was 93.3 nM.
`COC(=O)C[C@H](O)[C@H](CC(C)C)NC(=O)[C@H](C)NC(=O)C[C@H](O)[C@H](CC(C)C)NC(=O)[C@H](COCc1ccccn1)NC(=O)[C@H](Cc1ccccc1)NC(=O)OC(C)(C)C` [SR 43555, Boc--Phe--((Pyr--2)CH2 O)Ser--Sta--Ala--Sta--OMe] (Boc-FS(X4)[Sta]A[Sta]-OMe): the IC50 was 316 nM.
In the case of `COC(=O)[C@H](CC(C)C)NC(=O)[C@H](C)NC(=O)C[C@H](O)[C@H](CC(C)C)NC(=O)C(NC(=O)[C@H](Cc1ccccc1)NC(=O)OC(C)(C)C)c1csc(C)n1` (stereo partly drawn) [SR 43059, Boc-Phe-(2-methylthiazol-4-yl)Gly-Sta-Ala-Leu-OMe] (Boc-F[X10][Sta]AL-OMe), the IC50 was 3020 nM.
Still for that read-out and setting: as for `CCn1cnc(C[C@H](NC(=O)[C@H](Cc2ccccc2)NC(=O)OC(C)(C)C)C(=O)N[C@@H](CC(C)C)[C@@H](O)CC(=O)N[C@@H](C)C(=O)N[C@@H](CC(C)C)[C@@H](O)CC(=O)OC)c1` [SR 43391, Boc--Phe--(tauEt)His--Sta--Ala--Sta--OMe] (Boc-F[X9][Sta]A[Sta]-OMe), the figure is 64.6 nM; as for `COC(=O)[C@H](Cc1ccccc1)NC(=O)[C@H](CC(C)C)NC(=O)C[C@H](O)[C@H](CC(C)C)NC(=O)C(Cc1ccncc1)NC(=O)[C@H](Cc1ccccc1)NC(=O)OC(C)(C)C` (stereo partly drawn) [SR 43144, Boc-Phe-(Pyr-4)Ala-Sta-Leu-Phe-OMe] (Boc-F[ξ4Pal][Sta]LF-OMe), 1320 nM; as for `COC(=O)C[C@H](O)[C@H](CC(C)C)NC(=O)[C@H](C)NC(=O)C[C@H](O)[C@H](CC(C)C)NC(=O)[C@@H](NC(=O)[C@H](Cc1ccccc1)NC(=O)OC(C)(C)C)C1CCCC1` [SR 43554, Boc--Phe--Cpg--Sta--Ala--Sta--OMe] (Boc-F[Gly(cPent)][Sta]A[Sta]-OMe), 37.2 nM.
As to `COC(=O)C[C@H](O)[C@H](CC(C)C)NC(=O)[C@H](C)NC(=O)C[C@H](O)[C@H](CC(C)C)NC(=O)C(Cc1cccnc1)NC(=O)[C@H](Cc1ccccc1)NC(=O)OC(C)(C)C` (stereo partly drawn) [SR 43429, Boc-Phe-(Pyr-3)Ala-Sta-Ala-Sta-OMe] (Boc-F[ξ3Pal][Sta]A[Sta]-OMe), the IC50 is 417 nM.
